Values of other authors as cited in patent US20210290432A1, “KIT FOR PRODUCING KERATOCONJUNCTIVAL COVER SHEET AND METHOD FOR PRODUCING KERATOCONJUNCTIVAL COVER SHEET” (OSAKA UNIVERSITY, priority 2016, published 2021).

In the case of `O=C(NC(Cc1cc(=O)[nH]c2ccccc12)C(=O)O)c1ccc(Cl)cc1` (stereo not shown) [Rebamipide, rebamipide], the solubility in water is given as “poorly soluble in water”.
